Results reported in PubChem BioAssay (NCI).
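GI50 marks 50% less growth. Definition used: TGI = concentration required for complete inhibition of growth.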

Key:
Test in all cases: NCI-60 cell line screen, 384-well format
786-0 renal = test system: 786-0 renal
K-562 leukemia = test system: K-562 leukemia
HOP-92 NSCLC = test system: HOP-92 NSCLC
A549 NSCLC = test system: A549 NSCLC
MDA-MB-468 breast = test system: MDA-MB-468 breast
UACC-257 melanoma = test system: UACC-257 melanoma
IGROV1 ovarian = test system: IGROV1 ovarian
MDA-MB-435 melanoma = test system: MDA-MB-435 melanoma
HCC-2998 colon = test system: HCC-2998 colon
SNB-19 CNS = test system: SNB-19 CNS
RPMI-8226 leukemia = test system: RPMI-8226 leukemia
SF-539 CNS = test system: SF-539 CNS
NCI/ADR-RES ovarian = test system: NCI/ADR-RES ovarian
SK-OV-3 ovarian = test system: SK-OV-3 ovarian
CAKI-1 renal = test system: CAKI-1 renal
SF-268 CNS = test system: SF-268 CNS
OVCAR-5 ovarian = test system: OVCAR-5 ovarian
SK-MEL-2 melanoma = test system: SK-MEL-2 melanoma
NCI-H522 lung = test system: NCI-H522 lung
SK-MEL-5 melanoma = test system: SK-MEL-5 melanoma
SF-295 CNS = test system: SF-295 CNS
HT29 colon = test system: HT29 colon
HOP-62 NSCLC = test system: HOP-62 NSCLC
T-47D breast = test system: T-47D breast
HCT-116 colon = test system: HCT-116 colon
NCI-H460 NSCLC = test system: NCI-H460 NSCLC
HS 578T breast = test system: HS 578T breast
PC-3 prostate = test system: PC-3 prostate
SK-MEL-28 melanoma = test system: SK-MEL-28 melanoma
MOLT-4 leukemia = test system: MOLT-4 leukemia
DU-145 prostate = test system: DU-145 prostate
ACHN renal = test system: ACHN renal
NCI-H322M lung = test system: NCI-H322M lung
TK-10 renal = test system: TK-10 renal
KM12 colon = test system: KM12 colon
COLO 205 colon = test system: COLO 205 colon
MALME-3M melanoma = test system: MALME-3M melanoma
M14 melanoma = test system: M14 melanoma
NCI-H23 lung = test system: NCI-H23 lung
NCI-H226 lung = test system: NCI-H226 lung
HL-60(TB) leukemia = test system: HL-60(TB) leukemia
MDA-MB-231 breast = test system: MDA-MB-231 breast
LOX IMVI melanoma = test system: LOX IMVI melanoma
MCF7 breast = test system: MCF7 breast
HCT-15 colon = test system: HCT-15 colon
EKVX NSCLC = test system: EKVX NSCLC
OVCAR-3 ovarian = test system: OVCAR-3 ovarian
A498 renal = test system: A498 renal
OVCAR-4 ovarian = test system: OVCAR-4 ovarian
CCRF-CEM leukemia = test system: CCRF-CEM leukemia
SW-620 colon = test system: SW-620 colon
SR leukemia = test system: SR leukemia
U251 glioblastoma = test system: U251 glioblastoma
SN12C renal = test system: SN12C renal
SNB-75 CNS = test system: SNB-75 CNS
BT-549 breast = test system: BT-549 breast
UACC-62 melanoma = test system: UACC-62 melanoma
RXF 393 renal = test system: RXF 393 renal
UO-31 renal = test system: UO-31 renal

O=C(Nc1ccccc1/C=C/c1n[nH]c2ccccc12)c1ccccc1
GI50 ([…]-0 renal): 1820 nM
TGI (786-0 renal): 3310 nM
GI50 (K-562 leukemia): 1370 nM
TGI (K-562 leukemia): 2770 nM
GI50 (HOP-92 NSCLC): 1520 nM
TGI (HOP-92 NSCLC): 5050 nM
GI50 (A549 NSCLC): 1740 nM
TGI (A549 NSCLC): 3390 nM
GI50 (MDA-MB-468 breast): 1640 nM
TGI (MDA-MB-468 breast): 3650 nM
GI50 (UACC-257 melanoma): 1940 nM
TGI (UACC-257 melanoma): 4300 nM
GI50 (IGROV1 ovarian): 5770 nM
TGI (IGROV1 ovarian): 19600 nM
GI50 (MDA-MB-435 melanoma): 1530 nM
TGI (MDA-MB-435 melanoma): 4460 nM
GI50 (HCC-2998 colon): 1280 nM
TGI (HCC-2998 colon): 2580 nM
GI50 (SNB-19 CNS): 1980 nM
TGI (SNB-19 CNS): 4380 nM
GI50 (RPMI-8226 leukemia): 1560 nM
TGI (RPMI-8226 leukemia): 2970 nM
GI50 (SF-539 CNS): 2040 nM
TGI (SF-539 CNS): 4760 nM
GI50 (NCI/ADR-RES ovarian): 1990 nM
TGI (NCI/ADR-RES ovarian): 4430 nM
GI50 (SK-OV-3 ovarian): 2870 nM
TGI (SK-OV-3 ovarian): 11600 nM
GI50 (CAKI-1 renal): 2460 nM
TGI (CAKI-1 renal): 9910 nM
GI50 (SF-268 CNS): 1710 nM
TGI (SF-268 CNS): 3260 nM
GI50 (OVCAR-5 ovarian): 1400 nM
TGI (OVCAR-5 ovarian): 3330 nM
GI50 (SK-MEL-2 melanoma): 3880 nM
TGI (SK-MEL-2 melanoma): 5810 nM
GI50 (NCI-H522 lung): 2360 nM
TGI (NCI-H522 lung): 8590 nM
GI50 (SK-MEL-5 melanoma): 1560 nM
TGI (SK-MEL-5 melanoma): 6100 nM
GI50 (SF-295 CNS): 1630 nM
TGI (SF-295 CNS): 3000 nM
GI50 (HT29 colon): 1490 nM
TGI (HT29 colon): 2850 nM
GI50 (HOP-62 NSCLC): 1550 nM
TGI (HOP-62 NSCLC): 2950 nM
GI50 (T-47D breast): 1900 nM
TGI (T-47D breast): 4050 nM
GI50 (HCT-116 colon): 1490 nM
TGI (HCT-116 colon): 2990 nM
GI50 (NCI-H460 NSCLC): 1480 nM
TGI (NCI-H460 NSCLC): 2900 nM
GI50 (HS 578T breast): 1650 nM
TGI (HS 578T breast): 3110 nM
GI50 (PC-3 prostate): 1450 nM
TGI (PC-3 prostate): 2790 nM
GI50 (SK-MEL-28 melanoma): 2370 nM
TGI (SK-MEL-28 melanoma): 8160 nM
GI50 (MOLT-4 leukemia): 1650 nM
TGI (MOLT-4 leukemia): 3350 nM
GI50 (DU-145 prostate): 1470 nM
TGI (DU-145 prostate): 3040 nM
GI50 (ACHN renal): 2630 nM
TGI (ACHN renal): 8820 nM
GI50 (NCI-H322M lung): 1840 nM
TGI (NCI-H322M lung): 3970 nM
GI50 (TK-10 renal): 1500 nM
TGI (TK-10 renal): 3140 nM
GI50 (KM12 colon): 40.8 nM
TGI (KM12 colon): 1010 nM
GI50 (COLO 205 colon): 1300 nM
TGI (COLO 205 colon): 2590 nM
GI50 (MALME-3M melanoma): 1290 nM
TGI (MALME-3M melanoma): 2680 nM
GI50 (M14 melanoma): 3420 nM
TGI (M14 melanoma): 14300 nM
GI50 (NCI-H23 lung): 1160 nM
TGI (NCI-H23 lung): 12400 nM
GI50 (NCI-H226 lung): 1480 nM
TGI (NCI-H226 lung): 8440 nM
GI50 (HL-60(TB) leukemia): 538 nM
TGI (HL-60(TB) leukemia): 1880 nM
GI50 (MDA-MB-231 breast): 1480 nM
TGI (MDA-MB-231 breast): 2990 nM
GI50 (LOX IMVI melanoma): 1900 nM
TGI (LOX IMVI melanoma): 3450 nM
GI50 (MCF7 breast): 514 nM
TGI (MCF7 breast): 11400 nM
GI50 (HCT-15 colon): 1460 nM
TGI (HCT-15 colon): 2820 nM
GI50 (EKVX NSCLC): 1430 nM
TGI (EKVX NSCLC): 3940 nM
GI50 (OVCAR-3 ovarian): 1390 nM
TGI (OVCAR-3 ovarian): 2930 nM
GI50 (A498 renal): 1840 nM
TGI (A498 renal): 3310 nM
GI50 (OVCAR-4 ovarian): 4220 nM
TGI (OVCAR-4 ovarian): 17200 nM
GI50 (CCRF-CEM leukemia): 1580 nM
TGI (CCRF-CEM leukemia): 2960 nM
GI50 (SW-620 colon): 1870 nM
TGI (SW-620 colon): 5300 nM
GI50 (SR leukemia): 1230 nM
TGI (SR leukemia): 2510 nM
GI50 (U251 glioblastoma): 1550 nM
TGI (U251 glioblastoma): 2910 nM
GI50 (SN12C renal): 1530 nM
TGI (SN12C renal): 2900 nM
GI50 (SNB-75 CNS): 2160 nM
TGI (SNB-75 CNS): 4810 nM
GI50 (BT-549 breast): 1950 nM
TGI (BT-549 breast): 3460 nM
GI50 (UACC-62 melanoma): 1890 nM
TGI (UACC-62 melanoma): 3940 nM
GI50 (RXF 393 renal): 2930 nM
TGI (RXF 393 renal): 8110 nM
GI50 (UO-31 renal): 10400 nM
TGI (UO-31 renal): 22300 nM
